The values below come from patent EP3398599A1, “COMPOSITIONS AND METHODS FOR PROPHYLAXIS AND TREATMENT OF ADDICTIONS” (priority 2009, dated 2010).

Structures are written as SMILES.

Test [1] relates to msP rats. Briefly: Voluntary ethanol intake, acute treatment, free choice between water and 10% alcohol 24 hours a day. The conditions noted are these: for ethanol intake: 2, 8 and 24 hours. Format: in vivo. Here is the method:
The drug was given orally (OS) via gavage procedure in a volume of 1.0 ml/kg. Yohimbine was dissolved in distilled water and was administered intraperitoneally (IP) in a volume of 1.0 ml/kg. […] These drugs were given orally (OS) via gavage procedure in a volume of 1.0 ml/kg. Yohimbina was dissolved in distilled water and was administered intraperitoneally (IP) in a volume of 1.0 ml/kg. GW9662 was prepared in 5% DMSO and 5% TWIN 80 and was given either IP (1 ml/kg) or intacerebroventricularly (ICV, 1 µl/rat). Antalarmin was prepared in 10 % TWIN 80 and was given IP (1 ml/kg). Ondansetron was prepared in acqueous solution and was given IP (1 ml/kg).
At the beginning of the experiments, msP rats were allowed free choice between water and 10% (v/v) alcohol 24 h/day for at least 15 days. The fluids were offered in graduated drinking tubes equipped with metallic drinking spouts. The position (to the right or left) of alcohol and water drinking tubes was changed daily to avoid the development of side preference. […] Alcohol, water and food intakes were measured.
MsP rats were first trained to drink 10% (w/v) alcohol for 24 hours a day (free choice between water and ethanol). […] Before starting the treatment, rats were trained to gavage administration procedures for three days, during which they received vehicle (distilled water). […] Drinking experiments started at the beginning of the dark cycle. Alcohol, water and food intakes were monitored at 2, 8 and 24 hours after ethanol was made available.
Before starting the treatment, rats were trained to gavage and IP administration procedures for three days. Experiment was conducted in a between subject design (n = 22). […] Drinking experiments started at the beginning of the dark cycle. Alcohol, water and food intakes were monitored at 2, 8 and 24 hours after ethanol was made available.
The experiment was conduced using a within subject counterbalanced Latine square design, where each animal received all drug doses.
The drinking experiments were conducted at the beginning of the dark cycle, and alcohol, water and food intakes were monitored at 2, 8 and 24 hours after ethanol was made available.
MsP rats were first trained to drink 10% (w/v) alcohol for 24 hours a day (free choice between water and ethanol). […] Rats treated with drug vehicles served as a control. Before starting the treatment, rats were trained to gavage administration for three days, during which they received drugs vehicle (distilled water). […] Drinking experiments started at the beginning of the dark cycle. Alcohol, water, and food intakes were monitored at 2, 8 and 24 hours after ethanol was made available.
(§1) MsP rats were first trained to drink 10% (w/v) alcohol for 24 hours a day (free choice between water and ethanol). […] Rats treated with drug vehicles served as a control. Before starting the treatment, rats were trained to gavage administration for three days, during which they received drugs vehicle (distilled water). […] Drinking experiments started at the beginning of the dark cycle. Alcohol, water and food intakes were monitored at 2, 8 and 24 hours after ethanol was made available.
as §1
MsP rats were first trained to drink 10% (w/v) alcohol for 24 hours a day (free choice between water and ethanol). […] Rats treated with drug vehicles served as a control. Before starting the treatment, rats were trained to gavage administration for three days, during which they received drugs vehicle (distilled water).

In test [2] the test system is heavy tobacco smokers. Briefly: Pilot study in heavy tobacco smokers (pioglitazone 15-30 mg/daily, varenicline 0.5 to 2.0 mg/day, bupropione 150 mg/kg). Format: in vivo, human. The conditions noted are these: for STAI score (anxiety): over 10 treatment weeks. From the text:
[…] Patients were instructed to record in a personal logbook the number of cigarettes per day and the time of the day smoking occurred. At the end of the study, the logbooks were returned to the clinical personnel who analyzed the data. Every other week, participants were interviewed and subjected to the Spielberger State-Trait Anxiety Inventory (STAI), the Montgomery Asberg Depression Rating Scale (M.A.D.R.S 10 Item), and to a Visual Analogic Scale (VAS) to measure nicotine craving. During the first month of treatment, every two weeks, ACTH and cortisol levels were also monitored to evaluate HPA activation before and during treatment.

Test [3] deals with CD mice. Briefly: Morphine-induced analgesic tolerance, tail-flick test. The conditions noted are these: mouse, in vivo. Here is the method: All procedures were conducted in adherence to the European Community Council Directive for Care and Use of Laboratory Animals.
Mice were divided into 6 groups. Group 1 (n=8) received drug vehicles (veh/veh). […] Animals were treated twice daily (between 9:00 and 10:00 a.m. and 9:00 and 10:00 p.m.).
Morphine hydrochloride was purchased from Salars (Milano, Italy). Morphine (30 mg/kg) was dissolved in NaCl […] and was injected intraperitoneally (IP) twice a day at the indicated doses in a volume of 0.2 ml per mice. […] It was dissolved in distilled water and was administered per o.s. at the doses of 10 mg/kg and 30 mg/kg in a volume of 0.6 ml per mice.
Two different tests were used to monitor analgesic responses. The tail-flick test was performed 45 min after the morning injection of morphine, and the tail-immersion test was performed 45 min after the evening injection of morphine.
For the tail-flick test, each mouse was gently restrained in a soft tissue pocket, and the tail (1 cm from the tip) was exposed to a hot light beam. Latency for tail-flick was measured with a 6 seconds cut-off time. For the tail-immersion test, each mouse was restrained in a soft tissue pocket, and the distal half of the tail dipped into a water bath set at 52 C°. Latency for removing the tail from the hot water was measured with a 10 seconds cut-off time.
(In general: Hot-plate and tail-flick tests time the reaction to a heat stimulus.)

Test [4] relates to CD mice. The conditions noted are these: mouse, in vivo.
The subject of test [5] is human patients. Briefly: Observational study of alcohol abuse in human patients (pioglitazone 30 mg/day or naltrexone 50 mg/day + psychotherapy). Format: in vivo. The conditions noted are these: T=0 (beginning of the treatment). The text has this: Patients were instructed to record in a personal logbook the number of drinks per day and the time of the day drinks occurred. At the end of the study, the logbooks were returned to the clinical personnel who analyzed the data.
In addition, biochemical parameters to ascertain alcohol detoxification and to measure recovery of physiological functions (i.e., hepatic function) were monitored monthly. Hematological parameters measured included: mean corpuscular volume (MCV); gamma-GT; aspartate aminotransferase (AST); alanine aminotransferase (ALT); and carbohydrate-deficient transferring (CDT). MCV and CDT are biomarkers for ethanol consumption, and GGT, ALT and AST are biomarkers for hepatic functionality.
Data were analyzed by analysis of variance followed by Newman-Keuls post hoc tests when appropriate.

Regarding `O=C(Nc1ccccc1)c1cc([N+](=O)[O-])ccc1Cl` [GW9662], in test [1] (GW9662 5 µg/rat ICV alone), the “ethanol intake per se” value is “did not significantly affect ethanol intake per se”. For the same compound, the “pioglitazone-induced reduction of ethanol intake” value was “completely prevented the effect of pioglitazone” in test [1] (GW9662 5 µg/rat ICV with pioglitazone 30 mg/kg OS); “blocked the effect of pioglitazone in a dose related manner” in test [1] (GW9662 IP (1.0 and 5.0 mg/kg) with pioglitazone 30 mg/kg OS). Also, in test [1] (GW9662 alone (1.0 and 5.0 mg/kg IP)), the ethanol drinking entry is given as “did not modify ethanol drinking”.

On to `CC(NC(C)(C)C)C(=O)c1cccc(Cl)c1` (centres unmarked) [bupropione], for which the “STAI score (anxiety)” value in test [2] is on record as “not with bupropione”.

With `CNCCC(Oc1ccc(C(F)(F)F)cc1)c1ccccc1` (centres unmarked) [fluoxetine], the “ethanol intake in msP rats in a pilot study” value (“ethanol intake in msP rats” below) in test [1] (fluoxetine 3.0 mg/kg OS) is reported as “did not reduce ethanol intake”. The ethanol intake result in test [1] (fluoxetine alone 3.0 mg/kg OS, given twice) is on record as “did not significantly modify ethanol intake”.

As to `NCC1(CC(=O)O)CCCCC1` [gabapentin], in test [1] (gabapentin 60.0 mg/kg OS), the “ethanol intake in msP rats” value is “did not reduce ethanol intake”. Moreover, the ethanol intake result in test [1] (gabapentin alone 60.0 mg/kg OS) is listed as “did not significantly modify ethanol intake”.

For `CC[C@@H](C(N)=O)N1CCCC1=O` [levetiracetam], the “ethanol intake in msP rats” value in test [1] (levetiracetam 100.0 mg/kg OS) is given as “did not reduce ethanol intake”. The ethanol intake entry in test [1] (levetiracetam alone 100.0 mg/kg OS, given twice) is recorded as “did not significantly modify ethanol intake”.

For the compound `CN1CCN2c3ncccc3Cc3ccccc3C2C1` (centres unmarked) [mirtazapine], in test [1] (mirtazapine 5.0 mg/kg OS), the “ethanol intake in msP rats” value is on record as “did not reduce ethanol intake”. Besides, the ethanol intake entry in test [1] (mirtazapine alone 5.0 mg/kg OS, given twice) is “did not significantly modify ethanol intake”.

In the case of `CN1CC[C@]23c4c5ccc(O)c4O[C@H]2[C@@H](O)C=C[C@H]3[C@H]1C5` [morphine], in test [3], the “time to tail-flick on day 1, 3 and 5” value was “significantly increased the time to tail-flick”; the “time to tail-flick on test days 7 and 9” value is recorded as “non significant difference from controls”. In test [4], the “analgesic effect (tail-immersion) on test day 9” value is “marginally significant”; the “tail-immersion latency on day 1, 3, 5, and 7” value is given as “significantly increased the time to tail-flick”.

Consider `Cc1nccn1CC1CCc2c(c3ccccc3n2C)C1=O` (centres unmarked) [ondansetron], for which the “ethanol intake in msP rats” value in test [1] (ondansetron 1.0 mg/kg IP) is given as “did not reduce ethanol intake”. Moreover, the ethanol intake entry in test [1] (ondansetron alone 1.0 mg/kg IP, given twice) is “did not significantly modify ethanol intake”.

As for `CCc1ccc(CCOc2ccc(CC3SC(=O)NC3=O)cc2)nc1` (centres unmarked) [pioglitazone], the “Anxiety Score obtained using The STAY-Y1 scale (mean score values)” value in test [5] was determined as 59.

Take `CC1(C)O[C@@H]2[C@@H](CO[C@@]3(COS(N)(=O)=O)OC(C)(C)O[C@@H]23)O1` [topiramate]: the “ethanol intake in msP rats” value in test [1] (topiramate 30.0 mg/kg OS) is reported as “did not reduce ethanol intake”. In test [1] (topiramate alone 30.0 mg/kg OS, given twice), the ethanol intake result was “did not significantly modify ethanol intake”. The “ethanol intake at 2 hours” value in test [1] (topiramate alone 30.0 mg/kg OS, p<0.05) is “significant reduction of ethanol intake at 2 hours”.

Consider `c1cnc2cc3c(cc2n1)[C@@H]1CNC[C@H]3C1` [varenicline], for which the “Percent inhibition of smoking” value in test [2] (Patient 1, T=0 (baseline expressed as 100%)) was determined as 100%; in test [2] (Patient 1, T=2 weeks of treatment) it was 34%; in test [2] (Patient 1, T=4 weeks of treatment), 46%; in test [2] (Patient 1, T=6 weeks of treatment), 61%; in test [2] (Patient 1, T=8 weeks of treatment), 80%; in test [2] (Patient 1, T=10 weeks of treatment), 93%. Further, the “Percent inhibition of smoking” value in test [2] (Patient 2, T=0 (baseline expressed as 100%)) was found to be 100%; in test [2] (Patient 2, T=2 weeks of treatment), 22%; in test [2] (Patient 2, T=4 weeks of treatment), 47%; in test [2] (Patient 2, T=6 weeks of treatment), 63%; in test [2] (Patient 2, T=8 weeks of treatment) it was 87%; in test [2] (Patient 2, T=10 weeks of treatment), 100%. Moreover, the “Percent inhibition of smoking” value turned out to be 100% in test [2] (Patient 3, T=0 (baseline expressed as 100%)); 38% in test [2] (Patient 3, T=2 weeks of treatment); 54% in test [2] (Patient 3, T=4 weeks of treatment); 62% in test [2] (Patient 3, T=6 weeks of treatment); 79% in test [2] (Patient 3, T=8 weeks of treatment); 94% in test [2] (Patient 3, T=10 weeks of treatment). In addition, the “STAI score (anxiety)” value in test [2] is given as “significantly reduced”. Besides, in test [2] (pioglitazone 4 patients, varenicline 3 patients), the “subjects reaching complete abstinence” value is listed as “one of them”. For the same compound, the “percent of weekly smoked cigarettes: pioglitazone vs varenicline” value in test [2] (post hoc tests) is on record as “no significant differences”.
